Test results from patent publication US8575143B2, “3-aryl-substituted quinazolones, and uses thereof” (Prolexys Pharmaceuticals, Inc., priority 2005, dated 2013).
Read-outs that look alike come from different tables or passages of the source.

What was measured:
tumor cells = test: Sytox primary screen, inhibition of growth of tumor cells; format: cell-based; conditions: compound in DMSO, 48 hours exposure, Sytox read
Experimental: The ability of Compound 1, in DMSO, to inhibit the growth of tumor and normal cells was measured. The compound was assayed by the Sytox primary screen, a phenotypic assay which monitors alterations in cell survival-proliferation as a result of compound treatment. It was devised as high throughput method to identify compounds which specifically alter the growth potential of cells harboring the causative mutations found in cancer patients while not affecting the growth of normal cells. The assay relies upon an inexpensive, simple and reliable readout of a membrane impermeable fluorescent dye (Sytox, from Molecular Probes) which binds to nucleic acid. In healthy cells, no signal is detected because the cell's membrane is intact and the dye will not enter. However, if a cell's membrane is compromised as a result of apoptosis or necrosis, a fluorescent signal proportional to the number of similarly affected cells will be detected. By utilizing a two-step readout (final read in the presence of detergent to permit labeling of all cells), the assay can identify compounds which produce cytostasis, cytotoxicity and/or mitogenesis. The first read or “dead cell” read, provides an estimate of the toxicity of a given compound by indicating the number of dead or dying cells in the culture at the time of assay. […]

HT-1080 cells = test: Sytox assay, inhibition of growth of HT-1080 cells; format: cell-based; conditions: Homo sapiens, 48 hours exposure
Experimental: The ability of Compound 1, in DMSO, to inhibit the growth of tumor and normal cells was measured. The compound was assayed by the Sytox primary screen, a phenotypic assay which monitors alterations in cell survival-proliferation as a result of compound treatment. It was devised as high throughput method to identify compounds which specifically alter the growth potential of cells harboring the causative mutations found in cancer patients while not affecting the growth of normal cells. The assay relies upon an inexpensive, simple and reliable readout of a membrane impermeable fluorescent dye (Sytox, from Molecular Probes) which binds to nucleic acid. In healthy cells, no signal is detected because the cell's membrane is intact and the dye will not enter. However, if a cell's membrane is compromised as a result of apoptosis or necrosis, a fluorescent signal proportional to the number of similarly affected cells will be detected. By utilizing a two-step readout (final read in the presence of detergent to permit labeling of all cells), the assay can identify compounds which produce cytostasis, cytotoxicity and/or mitogenesis. The first read or “dead cell” read, provides an estimate of the toxicity of a given compound by indicating the number of dead or dying cells in the culture at the time of assay. The second read or “total cell” read, captures both the cumulative effects of cytoxicity in reducing the size of the cell population as well as any cytostatic or anti-proliferative effects a test compound may exert on the cells in the test population in the absence of toxicity.
Cells were seeded overnight in 96 well plates at densities that without treatment would permit 95% confluence in the wells 72 hours later. The following day, the cells were exposed to test compounds in a dilution series for a period of 48 hours. Following this incubation period, the Sytox reagent was added to the cultures at the manufacturer's recommended concentration and the dead cell fluorescence read was taken. After completion of this measurement, the detergent Saponin was added to each well of the cultures to permeabilize the membranes allowing the Sytox reagent to enter every cell, thereby facilitating measurement of the total number of cells remaining in the culture.
The ability of various compounds of the invention, in DMSO, to inhibit the growth of HT-1080 cells was measured. The HT-1080 cell line used in these experiments was derived from a patient with fibrosarcoma and harbors an activating mutation in the N-ras gene at codon 12. The compound was assayed using the assay described in Example 3. The results of the assay are shown in the table below, where the activity corresponds to the following ranges: A—less than 10 nM, B—10-100 nM, C—100-1000 nM, D—1000-2000 nM, E—greater than 2000 nM.

HT-1080 xenografts = test: HT-1080 tumor xenograft, daily IV administration for 5 days; format: in vivo; conditions: nude Balb/c mice, QD x 5 days
Experimental: The ability of compounds 10 and 25 to inhibit the growth of HT-1080 xenografts following daily, intravenous administration was examined using similar methods (described below). Compounds 10 and 25 were administered for 5 consecutive days and were evaluated at their respective IV MTD doses.
The HT-1080 cell line used in this xenograft study was derived from a patient with fibrosarcoma and harbors an activating mutation in the N-ras gene at codon 12. […] Robust tumor regression was observed when the compounds were administered at their respective MTD. No adverse clinical signs were observed
Nude Balb/c (Nu/Nu strain, Charles River Laboratories), female, 5-6 wks. old (˜22 g average body weight).
• A: Untreated Control, n=6 • B: Vehicle Control for Compound 10, QD×5 days, IV, n=6 • D: Compound 10 @ 25 mg/Kg (MTD), QD×5 days, IV, n=6 • E: Compound 10 @ 12.5 mg/Kg (½ MTD), QD×5 days, IV, n=6 Treatment Schedule: […]
Starting on Day 1, all animals were weighed, and tumor dimensions (L & W) were measured, every other day. […]
The resulting tumor volume values were averaged for each study group for each time point, and were then plotted against time. Variance was expressed as standard error of the mean (±SEM).

[1] = IV maximum tolerated dose (MTD); conditions: Nude Balb/c, mouse, in vivo, QD x 5 days, mice
[2] = Sytox read, read-out: IC50, inhibition of proliferation of HT-1080 cells
[3] = compound in DMSO, Sytox assay of Example 3, read-out: Activity (inhibition of growth of HT-1080 cells)

In the case of `CCOc1ccccc1-n1c(C(C)N2CCN(C(=O)COc3ccc(Cl)cc3)CC2)nc2cc(Cl)ccc2c1=O` (centres unmarked) [Compound 1, 2-(1-(4-(2-(4-chlorophenoxy)acetyl)piperazin-1-yl)ethyl)-7-chloro-3-(2-ethoxyphenyl)quinazolin-4(3H)-one], the IC50 (tumor cells) is reported as about 10000 nM.
Work on `CCOc1ccccc1-n1c(CN2CCNCC2)nc2cccc(Cl)c2c1=O` [Compound 2, 5-chloro-3-(2-ethoxyphenyl)-2-(piperazin-1-ylmethyl)quinazolin-4(3H)-one] yielded an IC50 (HT-1080 cells; [2]) of 100 nM and an IC50 (HT-1080 cells; [3]) of 10 to 100 nM.
For `CCOc1cc([N+](=O)[O-])ccc1-n1c(CN2CCCNCC2)nc2ccccc2c1=O` [Compound 3, 2-((1,4-diazepan-1-yl)methyl)-3-(2-ethoxy-4-nitrophenyl)quinazolin-4(3H)-one], the IC50 (HT-1080 cells; [2]) was 200 nM and the IC50 (HT-1080 cells; [3]) was 100 to 1000 nM.
With `CCOc1ccccc1-n1c(C(C)N2CCCN(C)CC2)nc2cc(N)ccc2c1=O` (centres unmarked) [Compound 10, 7-amino-3-(2-ethoxyphenyl)-2-(1-(4-methyl-1,4-diazepan-1-yl)ethyl)quinazolin-4(3H)-one] the IC50 (HT-1080 cells; [3]) was under 10 nM, the “inhibition in growth of HT-1080 cell xenograft” value (HT-1080 xenografts) was “inhibition in growth” and the MTD at 5 days [1] was 25 mg/kg.
Work on `CCOc1ccccc1-n1c(CN2CCCN(C)CC2)nc2cc(NCCOC)ccc2c1=O` [Compound 11, 3-(2-ethoxyphenyl)-7-(2-methoxyethylamino)-2-((4-methyl-1,4-diazepan-1-yl)methyl)quinazolin-4(3H)-one] yielded an IC50 (HT-1080 cells; [3]) of over 2000 nM.
Compound `CCOc1ccccc1-n1c(C(C)N2CCCN(C)CC2)nc2cc([N+](=O)[O-])ccc2c1=O` (centres unmarked) [Compound 12, 3-(2-ethoxyphenyl)-2-(1-(4-methyl-1,4-diazepan-1-yl)ethyl)-7-nitroquinazolin-4(3H)-one] has an IC50 (HT-1080 cells; [3]) of 100 to 1000 nM.
With `CN1CCCN(Cc2nc3cc(N)ccc3c(=O)n2-c2ccc(F)cc2Cl)CC1` [Compound 13, 7-amino-3-(2-chloro-4-fluorophenyl)-2-((4-methyl-1,4-diazepan-1-yl)methyl)quinazolin-4(3H)-one] the IC50 (HT-1080 cells; [3]) was over 2000 nM.
`Nc1ccc2c(=O)n(-c3ccc(F)cc3Cl)c(CN3CCNCC3)nc2c1` [Compound 14, 7-amino-3-(2-chloro-4-fluorophenyl)-2-(piperazin-1-ylmethyl)quinazolin-4(3H)-one] gave an IC50 (HT-1080 cells; [3]) of over 2000 nM.
`CCOc1ccccc1-n1c(CN2CCCN(C)CC2)nc2cc(NCCN3CCOCC3)ccc2c1=O` [Compound 15, 3-(2-ethoxyphenyl)-2-((4-methyl-1,4-diazepan-1-yl)methyl)-7-(2-morpholinoethylamino)quinazolin-4(3H)-one] showed an IC50 (HT-1080 cells; [3]) of 100 to 1000 nM.
With `CCOc1ccccc1-n1c(CN2CCCN(C)CC2)nc2cc(C(F)(F)F)ccc2c1=O` [Compound 16, 3-(2-ethoxyphenyl)-2-((4-methyl-1,4-diazepan-1-yl)methyl)-7-(trifluoromethyl)quinazolin-4(3H)-one] the IC50 (HT-1080 cells; [3]) was 100 to 1000 nM.
`O=c1c2ccccc2nc(CN2CCNCC2)n1-c1c(F)cc(F)cc1Cl` [Compound 17, 3-(2-chloro-4,6-difluorophenyl)-2-(piperazin-1-ylmethyl)quinazolin-4(3H)one] showed an IC50 (HT-1080 cells; [3]) of 100 to 1000 nM.
For `CN1CCCN(Cc2nc3ccccc3c(=O)n2-c2c(F)cc(F)cc2Cl)CC1` [Compound 18, 3-(2-chloro-4,6-difluorophenyl)-2-((4-methyl-1,4-diazepan-1-yl)methyl)quinazolin-4(3H)-one], the IC50 (HT-1080 cells; [3]) was 100 to 1000 nM.
In the case of `CCOc1cc(F)ccc1-n1c(CN2CCCN(C)CC2)nc2cc(N)ccc2c1=O` [Compound 19, 7-amino-3-(2-ethoxy-4-fluorophenyl)-2-((4-methyl-1,4-diazepan-1-yl)methyl)quinazolin-4(3H)-one], the IC50 (HT-1080 cells; [3]) is reported as under 10 nM.
Compound `CN1CCCN(Cc2nc3ccccc3c(=O)n2-c2ccc(OC(F)(F)F)cc2Cl)CC1` [Compound 20, 3-(2-chloro-4-(trifluoromethoxy)phenyl)-2-((4-methyl-1,4-diazepan-1-yl)methyl)quinazolin-4(3H)-one] has an IC50 (HT-1080 cells; [3]) of 10 to 100 nM.
In the case of `O=c1c2ccccc2nc(CN2CCNCC2)n1-c1ccc(OC(F)(F)F)cc1Cl` [Compound 21, 3-(2-chloro-4-(trifluoromethoxy)phenyl)-2-(piperazin-1-ylmethyl)quinazolin-4(3H)-one], the IC50 (HT-1080 cells; [3]) is reported as 100 to 1000 nM.
Compound `CN1CCCN(Cc2nc3cc(N)ccc3c(=O)n2-c2c(Cl)cccc2Cl)CC1` [Compound 22, 7-amino-3-(2,6-dichlorophenyl)-2-((4-methyl-1,4-diazepan-1-yl)methyl)quinazolin-4(3H)-one] has an IC50 (HT-1080 cells; [3]) of 100 to 1000 nM.
Work on `CCOc1ccccc1-n1c(CN2CCCN(C)CC2)nc2cc(F)ccc2c1=O` [Compound 24, 3-(2-ethoxyphenyl)-7-fluoro-2-((4-methyl-1,4-diazepan-1-yl)methyl)quinazolin-4(3H)-one] yielded an IC50 (HT-1080 cells; [3]) of 100 to 1000 nM.
In the case of `CCOc1ccccc1-n1c(CN2CCCN(C)CC2)nc2cc(N)ccc2c1=O` [Compound 25, 7-amino-3-(2-ethoxyphenyl)-2-((4-methyl-1,4-diazepan-1-yl)methyl)quinazolin-4(3H)-one], the IC50 (HT-1080 cells; [3]) is reported as under 10 nM and the “inhibition in growth of HT-1080 cell xenograft” value (HT-1080 xenografts) is reported as “inhibition in growth”.
